Assay results as given in US7781191B2, “Treatment of biomass to obtain a target chemical” (E. I. du Pont de Nemours and Company, priority 2005, dated 2010).

Test system: Z. mobilis strain 8b
Conditions: fermentation medium pH 6.0, 30° C., 150 rpm; supplemented with 6 g/L acetamide or 7.2 g/L acetic acid vs unsupplemented control; FIG. 1
Text: Fermentation medium was composed of 10 g/L yeast extract, 2 g/L KH2PO4, 70 g/L glucose, 40 g/L xylose and 0.1 M MES buffer.

Structure (SMILES)	final density / cell yield (as measured by dry cell mass) of Z. mobilis	growth rate of Z. mobilis
CC(N)=O [acetamide]	no influence	no influence
CC(=O)O [acetic acid]	–	reduced growth rate
